Measured values from PubChem BioAssay (NCI).
Values joined by “and” are separate entries in the source; they are usually repeats but may differ in a detail not shown here. Identical values can stand only once.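 A five-concentration, 48-hour dose response in 96-well plates underlies each endpoint, interpolated linearly between surrounding concentrations. At the GI50, growth is halved. At the TGI there is no net growth.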

Tests used:
Assay in all cases: DTP human tumour cell line panel, 48 h
ACHN renal = tested on: ACHN renal
HS 578T breast = tested on: HS 578T breast
CCRF-CEM leukemia = tested on: CCRF-CEM leukemia
OVCAR-5 ovarian = tested on: OVCAR-5 ovarian
SK-MEL-28 melanoma = tested on: SK-MEL-28 melanoma
MCF7 breast = tested on: MCF7 breast
U251 CNS = tested on: U251 CNS
OVCAR-4 ovarian = tested on: OVCAR-4 ovarian
SF-539 CNS = tested on: SF-539 CNS
RPMI-8226 leukemia = tested on: RPMI-8226 leukemia

## O=C1c2c(O)cc(O)cc2OC(c2ccc(O)cc2O)C1O (stereo not drawn)
ACHN renal
  GI50: > 100 µM
  TGI: > 100 µM
HS 578T breast
  TGI: > 100 µM
CCRF-CEM leukemia
  GI50: > 100 µM
  TGI: > 100 µM
OVCAR-5 ovarian
  GI50: > 100 µM
  TGI: > 100 µM
SK-MEL-28 melanoma
  GI50: > 100 µM
  TGI: > 100 µM
MCF7 breast
  TGI: > 100 µM
U251 CNS
  GI50: > 100 µM
  TGI: > 100 µM
OVCAR-4 ovarian
  GI50: > 100 µM
  TGI: > 100 µM
SF-539 CNS
  GI50: > 100 µM
  TGI: > 100 µM
RPMI-8226 leukemia
  GI50: > 100 µM
  TGI: > 100 µM

## COc1ccc2c(c1)[n+](=O)c(C(=O)/C=C/c1cc(OC)c(OC)c(OC)c1)c(C)n2[O-]
ACHN renal
  GI50: 13.5 µM
  TGI: 28.8 µM
HS 578T breast
  GI50: 11.8 µM
  TGI: 34.5 µM
CCRF-CEM leukemia
  GI50: 28 µM
  TGI: > 100 µM
OVCAR-5 ovarian
  GI50: 20.8 µM
  TGI: 62.9 µM
SK-MEL-28 melanoma
  GI50: > 100 µM
  TGI: > 100 µM
MCF7 breast
  GI50: 18 µM
  TGI: 88.4 µM
U251 CNS
  GI50: 9.87 µM
  TGI: 22.4 µM
OVCAR-4 ovarian
  GI50: > 100 µM
  TGI: > 100 µM
SF-539 CNS
  GI50: 14.4 µM
  TGI: 29.7 µM
RPMI-8226 leukemia
  GI50: 47.2 µM
  TGI: > 100 µM

## CCCSC1=NC2C(N(CC)C(=O)N2CC)N1/N=C/C=C/c1ccccc1[N+](=O)[O-] (stereo not drawn)
ACHN renal
  GI50: 3.98 µM
  TGI: > 100 µM
HS 578T breast
  GI50: 2.39 µM
  TGI: > 100 µM
CCRF-CEM leukemia
  GI50: 2.93 µM
  TGI: > 100 µM
OVCAR-5 ovarian
  GI50: 5.65 µM
  TGI: > 100 µM
SK-MEL-28 melanoma
  GI50: 6.96 µM
  TGI: > 100 µM
MCF7 breast
  GI50: 2.81 µM
  TGI: > 100 µM
U251 CNS
  GI50: 3.42 µM
  TGI: > 100 µM
OVCAR-4 ovarian
  GI50: 6.72 µM
  TGI: > 100 µM
SF-539 CNS
  GI50: 2.13 µM
  TGI: 5.8 µM

## O=C1CCc2c(sc3[nH]c(=S)n(Cc4ccccc4)c(=O)c23)C1
ACHN renal
  GI50: 3.73 µM
  TGI: > 100 µM
HS 578T breast
  GI50: 3.09 µM
  TGI: > 100 µM
CCRF-CEM leukemia
  GI50: 2.88 µM
  TGI: 10.3 µM
OVCAR-5 ovarian
  GI50: 3.67 µM
  TGI: > 100 µM
SK-MEL-28 melanoma
  GI50: 4.4 µM
  TGI: > 100 µM
MCF7 breast
  GI50: 3.26 µM
  TGI: 12.4 µM
U251 CNS
  GI50: 2.14 µM
  TGI: > 100 µM
OVCAR-4 ovarian
  GI50: 3.99 µM
  TGI: > 100 µM
SF-539 CNS
  GI50: 2.15 µM
  TGI: 5.61 µM
RPMI-8226 leukemia
  GI50: 1.18 µM
  TGI: 9.79 µM

## COc1cnc2c(c1)C(=O)c1c-2n(CCCN2CCCC2)c(=O)c2cc(F)ccc12
ACHN renal
  GI50: 0.155 µM
  TGI: 0.461 µM
HS 578T breast
  GI50: 1.69 µM
  TGI: 13.5 µM
CCRF-CEM leukemia
  GI50: 0.199 µM
  TGI: 2.82 µM
OVCAR-5 ovarian
  GI50: 0.41 µM
  TGI: 3.23 µM
SK-MEL-28 melanoma
  GI50: 2.49 µM
  TGI: 14.7 µM
MCF7 breast
  GI50: 0.0482 µM
  TGI: 3.88 µM
U251 CNS
  GI50: 0.116 µM
  TGI: 0.467 µM
OVCAR-4 ovarian
  GI50: 0.365 µM
  TGI: 11.3 µM
SF-539 CNS
  GI50: 0.36 µM
  TGI: 1.48 µM
RPMI-8226 leukemia
  GI50: 0.123 µM
  TGI: 0.643 µM

## CCc1nc(Cl)nc(Cl)c1Cl
ACHN renal
  TGI: 1.5 µM
HS 578T breast
  TGI: 9.39 µM
CCRF-CEM leukemia
  TGI: 0.771 µM
OVCAR-5 ovarian
  TGI: 9.81 µM
SK-MEL-28 melanoma
  TGI: 17.7 µM
MCF7 breast
  TGI: 5.56 µM
U251 CNS
  TGI: 3.32 µM
OVCAR-4 ovarian
  TGI: 2.06 µM
SF-539 CNS
  TGI: 9.65 µM

## C=C(C)[C@@H]1CC[C@]2(COC3CCCCO3)CC[C@]3(C)[C@H](CC[C@@H]4[C@@]5(C)C=C(C=O)C(=O)C(C)(C)[C@@H]5CC[C@]43C)[C@@H]12 (stereo partly drawn)
ACHN renal
  GI50: 1.26 µM
  TGI: 2.52 µM
HS 578T breast
  GI50: 1.39 µM
  TGI: 3.77 µM
CCRF-CEM leukemia
  GI50: 0.386 µM
  TGI: 2.57 µM
OVCAR-5 ovarian
  GI50: 1.79 µM
  TGI: 4.21 µM
SK-MEL-28 melanoma
  GI50: 0.734 µM
  TGI: 2.2 µM
MCF7 breast
  GI50: 1.52 µM
  TGI: 3.43 µM
U251 CNS
  GI50: 1.18 µM
  TGI: 2.71 µM
OVCAR-4 ovarian
  GI50: 2.01 µM
  TGI: 3.89 µM
SF-539 CNS
  GI50: 1.21 µM
  TGI: 2.58 µM
RPMI-8226 leukemia
  GI50: 1.59 µM
  TGI: 8.3 µM

## O=C1/C(=C/c2ccccc2)CN(C(=O)OCc2ccccc2)C/C1=C\c1ccccc1
ACHN renal
  TGI: 25.7 µM
HS 578T breast
  TGI: 10.1 µM
CCRF-CEM leukemia
  TGI: 8.4 µM and 8.56 µM
OVCAR-5 ovarian
  TGI: 30.8 µM
SK-MEL-28 melanoma
  TGI: 32.8 µM
MCF7 breast
  TGI: 37.2 µM
U251 CNS
  TGI: 17.8 µM
OVCAR-4 ovarian
  GI50: 7.9 µM
  TGI: 27.4 µM
SF-539 CNS
  TGI: 30.9 µM
RPMI-8226 leukemia
  GI50: 0.169 µM and 0.2 µM
  TGI: 0.737 µM and 0.647 µM

## C#Cc1cccc(Nc2nc3ccc([N+](=O)[O-])cc3nc2Nc2cccc(C#C)c2)c1
ACHN renal
  GI50: 0.293 µM
  TGI: 1.16 µM
HS 578T breast
  GI50: 0.322 µM
  TGI: 1.72 µM
CCRF-CEM leukemia
  GI50: 0.209 µM
  TGI: 1.03 µM
OVCAR-5 ovarian
  GI50: 0.338 µM
  TGI: 1.35 µM
SK-MEL-28 melanoma
  GI50: 0.354 µM
  TGI: 1.17 µM
MCF7 breast
  GI50: 0.266 µM
  TGI: 1.07 µM
U251 CNS
  GI50: 0.18 µM
  TGI: 0.482 µM
OVCAR-4 ovarian
  GI50: 0.218 µM
  TGI: 0.982 µM
SF-539 CNS
  GI50: 0.247 µM
  TGI: 0.738 µM
RPMI-8226 leukemia
  GI50: 0.218 µM
  TGI: 0.998 µM

## Nc1nnc(Cn2c(-c3ccccc3)nc3ccc(Br)cc3c2=O)s1
ACHN renal
  GI50: 39 µM
  TGI: > 100 µM
HS 578T breast
  GI50: 41.4 µM
  TGI: > 100 µM
CCRF-CEM leukemia
  GI50: 16.3 µM
  TGI: 67.6 µM
OVCAR-5 ovarian
  GI50: > 100 µM
  TGI: > 100 µM
SK-MEL-28 melanoma
  GI50: > 100 µM
  TGI: > 100 µM
MCF7 breast
  GI50: > 100 µM
  TGI: > 100 µM
U251 CNS
  GI50: 38.4 µM
  TGI: > 100 µM
OVCAR-4 ovarian
  GI50: > 100 µM
  TGI: > 100 µM
SF-539 CNS
  GI50: 32.9 µM
  TGI: > 100 µM
RPMI-8226 leukemia
  GI50: 18.1 µM
  TGI: 62.8 µM

## Cc1cc(C)nc(SC2=C(Nc3cccc(Cl)c3C)C(=O)N(Cc3ccccc3)C2=O)n1
ACHN renal
  GI50: > 160 µM
  TGI: > 160 µM
HS 578T breast
  GI50: > 160 µM
  TGI: > 160 µM
CCRF-CEM leukemia
  GI50: > 160 µM
  TGI: > 160 µM
OVCAR-5 ovarian
  GI50: > 160 µM
  TGI: > 160 µM
SK-MEL-28 melanoma
  GI50: > 160 µM
  TGI: > 160 µM
MCF7 breast
  GI50: > 160 µM
  TGI: > 160 µM
U251 CNS
  GI50: > 160 µM
  TGI: > 160 µM
OVCAR-4 ovarian
  GI50: > 160 µM
  TGI: > 160 µM
SF-539 CNS
  GI50: > 160 µM
  TGI: > 160 µM
RPMI-8226 leukemia
  GI50: > 160 µM
  TGI: > 160 µM

## COc1ccc(-c2cc(-c3cc(OC)c(OC)c(OC)c3)c(C#N)c(N3CCOCC3)n2)cc1O
ACHN renal
  GI50: 3.49 µM
  TGI: > 100 µM
HS 578T breast
  GI50: 2.45 µM
  TGI: > 28.3 µM
CCRF-CEM leukemia
  GI50: 6.46 µM
  TGI: > 77.9 µM
OVCAR-5 ovarian
  TGI: > 100 µM
SK-MEL-28 melanoma
  GI50: > 21.8 µM
  TGI: > 94.8 µM
MCF7 breast
  GI50: 3.2 µM
  TGI: > 100 µM
U251 CNS
  GI50: 3.4 µM
  TGI: > 94.1 µM
OVCAR-4 ovarian
  GI50: 47.9 µM
  TGI: > 100 µM
SF-539 CNS
  GI50: 2.52 µM
  TGI: 12.5 µM
RPMI-8226 leukemia
  GI50: 0.514 µM
  TGI: 3.6 µM

## CC(=O)OC1CC2C(C)(C)C(=O)C=CC2(C)C2CCC3(C)C(c4ccoc4)OC(=O)C4OC43C12C (stereo not drawn)
ACHN renal
  TGI: > 100 µM
HS 578T breast
  TGI: > 100 µM
OVCAR-5 ovarian
  TGI: > 100 µM
SK-MEL-28 melanoma
  TGI: > 100 µM
MCF7 breast
  TGI: 29.5 µM
U251 CNS
  TGI: 26.1 µM
OVCAR-4 ovarian
  TGI: > 100 µM
SF-539 CNS
  TGI: 26.6 µM
RPMI-8226 leukemia
  TGI: 8.02 µM

## CSc1ccc(/C=C/c2ccnc3ccccc23)cc1
ACHN renal
  TGI: 29.5 µM
HS 578T breast
  TGI: 43.4 µM
CCRF-CEM leukemia
  TGI: 78.3 µM
OVCAR-5 ovarian
  TGI: 35 µM
SK-MEL-28 melanoma
  TGI: 32.6 µM
MCF7 breast
  TGI: 28.6 µM
U251 CNS
  TGI: 25.4 µM
SF-539 CNS
  TGI: 32.7 µM
